Results reported in US12534452B2, “N-(1H-imidazol-2-yl)benzamide compound and pharmaceutical composition comprising the same as active ingredient” (KAINOS MEDICINE, INC., priority 2019, dated 2026).

Biological target: IRAK4 (Homo sapiens (Human), UniProt Q9NWZ3)
Experiment: In vitro IRAK4 phosphorylation activity assay
Assay type: biochemical
Settings: [γ-33P]-ATP, myelin basic protein substrate, 40 minutes at room temperature; categories
How it was run: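 Radiometric filter-binding assay, no compound–kinase preincubation; 8 mM MOPS pH 7.0, 0.2 mM EDTA, 10 mM Mg acetate, 0.33 mg/mL myelin basic protein substrate, [γ-33P]-ATP. Reaction 40 min at room temperature, stopped with phosphoric acid, scintillation counting; IC50 reported in categories.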

Chain of IRAK4 (Q9NWZ3 whole entry): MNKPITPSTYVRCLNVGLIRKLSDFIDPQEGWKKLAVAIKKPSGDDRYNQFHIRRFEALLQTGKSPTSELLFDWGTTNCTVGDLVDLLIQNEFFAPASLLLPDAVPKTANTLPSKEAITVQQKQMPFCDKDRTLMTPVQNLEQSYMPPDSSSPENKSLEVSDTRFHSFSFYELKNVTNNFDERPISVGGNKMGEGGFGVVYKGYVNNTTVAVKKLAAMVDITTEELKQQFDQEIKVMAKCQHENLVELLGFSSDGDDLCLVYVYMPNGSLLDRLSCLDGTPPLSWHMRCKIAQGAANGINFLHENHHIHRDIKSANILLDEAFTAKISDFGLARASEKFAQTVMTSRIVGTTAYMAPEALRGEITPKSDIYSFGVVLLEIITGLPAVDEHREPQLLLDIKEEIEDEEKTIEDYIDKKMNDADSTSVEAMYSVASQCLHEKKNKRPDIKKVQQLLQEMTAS

| Compound | IC50 [nM] |
| --- | --- |
| CN1CCN(C(=O)CCCc2cn(-c3ccccc3)c(NC(=O)c3cccc(-c4ccc5ncsc5c4)c3)n2)CC1 [Example 280, 3-(benzo[d]thiazol-6-yl)-N-(4-(4-(4-methylpiperazin-1-yl)-4-oxobutyl)-1-phenyl-1H-imidazol-2-yl)benzamide] | < 50 |
| Cn1cc(-c2cccc(C(=O)Nc3nc(CCCCC(=O)NCCN4CCOCC4)cn3-c3ccccc3)c2)cn1 [Example 198, 3-(1-methyl-1H-pyrazol-4-yl)-N-(4-(5-((2-morpholinoethyl)amino)-5-oxopentyl)-1-phenyl-1H-imidazol-2-yl)benzamide] | < 50 |
| CN1CCN(CCCc2cn(-c3ccccc3)c(NC(=O)c3cccc(-c4cn[nH]c4)c3)n2)CC1 [Example 108, N-(4-(3-(4-methylpiperazin-1-yl)propyl)-1-phenyl-1H-imidazol-2-yl)-3-(1H-pyrazol-4-yl)benzamide] | < 50 |
| O=C(O)CCc1cn(-c2ccccc2)c(NC(=O)c2cccc(-c3cn[nH]c3)c2)n1 [Example 7, 3-(2-(3-(1H-pyrazol-4-yl)benzamido)-1-phenyl-1H-imidazol-4-yl)propanoic acid] | < 50 |
| Cn1ncc2cc(-c3cccc(C(=O)Nc4nc(CCCCCC(=O)N5CCCCC5)cn4-c4ccccc4)c3)ccc21 [Example 251, 3-(1-methyl-1H-indazol-5-yl)-N-(4-(6-oxo-6-(piperidin-1-yl)hexyl)-1-phenyl-1H-imidazol-2-yl)benzamide] | > 100 |
| COC(=O)CCCCCc1cn(-c2ccccc2)c(NC(=O)c2cccc(-c3cn[nH]c3)c2)n1 [Example 91, methyl 6-(2-(3-(1H-pyrazol-4-yl)benzamido)-1-phenyl-1H-imidazol-4-yl)hexanoate] | < 50 |
| COC[C@H]1CCCN1C(=O)CCCc1cn(-c2ccccc2)c(NC(=O)c2cccc(-c3cn[nH]c3)c2)n1 [Example 56, (R)—N-(4-(4-(2-(methoxymethyl)pyrrolidin-1-yl)-4-oxobutyl)-1-phenyl-1H-imidazol-2-yl)-3-(1H-pyrazol-4-yl)benzamide] | < 50 |
| O=C(CCCc1cn(-c2ccccc2)c(NC(=O)c2cccc(-c3ccc4cn[nH]c4c3)c2)n1)NC1CC1 [Example 250, N-(4-(4-(cyclopropylamino)-4-oxobutyl)-1-phenyl-1H-imidazol-2-yl)-3-(1H-indazol-6-yl)benzamide] | < 50 |
| CNC(=O)CCCc1cn(-c2ccccc2)c(NC(=O)c2cccc(-c3ccncc3)c2)n1 [Example 266, N-(4-(4-(methylamino)-4-oxobutyl)-1-phenyl-1H-imidazol-2-yl)-3-(pyridin-4-yl)benzamide] | < 50 |

Other lines, results leading:

| IC50 [nM] | Compound |
| --- | --- |
| < 50 | COC[C@@H]1CCCN1C(=O)CCCCc1cn(-c2ccccc2)c(NC(=O)c2cccc(-c3cn[nH]c3)c2)n1 [Example 86, (S)—N-(4-(5-(2-(methoxymethyl)pyrrolidin-1-yl)-5-oxopentyl)-1-phenyl-1H-imidazol-2-yl)-3-(1H-pyrazol-4-yl)benzamide] |
| 50 to 100 | Cn1cc(-c2cccc(C(=O)Nc3nc(CCCC(=O)NC[C@@H](F)C(C)(C)O)cn3-c3ccccc3)c2)cn1 [Example 185, (R)—N-(4-(4-((2-fluoro-3-hydroxy-3-methylbutyl)amino)-4-oxobutyl)-1-phenyl-1H-imidazol-2-yl)-3-(1-methyl-1H-pyrazol-4-yl)benzamide] |
| < 50 | O=C(CCc1cn(-c2cccc(Cl)c2)c(NC(=O)c2cccc(-c3cn[nH]c3)c2)n1)Nc1ccccc1 [Example 293, N-(1-(3-chlorophenyl)-4-(3-oxo-3-(phenylamino)propyl)-1H-imidazol-2-yl)-3-(1H-pyrazol-4-yl)benzamide] |
| < 50 | C[C@@H]1CCC[C@H](C)N1C(=O)CCc1cn(-c2ccccc2)c(NC(=O)c2cccc(-c3cn[nH]c3)c2)n1 [Example 32, N-(4-(3-((2R,6S)-2,6-dimethylpiperidin-1-yl)-3-oxopropyl)-1-phenyl-1H-imidazol-2-yl)-3-(1H-pyrazol-4-yl)benzamide] |
| 50 to 100 | CN1CCC(NC(=O)CCCc2cn(-c3ccccc3)c(NC(=O)c3cccc(-c4cnn(C)c4)c3)n2)CC1 [Example 148, 3-(1-methyl-1H-pyrazol-4-yl)-N-(4-(4-((1-methylpiperidin-4-yl)amino)-4-oxobutyl)-1-phenyl-1H-imidazol-2-yl)benzamide] |
| < 50 | CN1CCN(C(=O)CCCCCc2cn(-c3ccccc3)c(NC(=O)c3cccc(-c4ccc(N)nc4)c3)n2)CC1 [Example 272, 3-(6-aminopyridin-3-yl)-N-(4-(6-(4-methylpiperazin-1-yl)-6-oxohexyl)-1-phenyl-1H-imidazol-2-yl)benzamide] |
| > 100 | COC[C@H]1CCCN1C(=O)Cc1cn(-c2ccccc2)c(NC(=O)c2cccc(-c3cn[nH]c3)c2)n1 [Example 47, (R)—N-(4-(2-(2-(methoxymethyl)pyrrolidin-1-yl)-2-oxoethyl)-1-phenyl-1H-imidazol-2-yl)-3-(1H-pyrazol-4-yl)benzamide] |
| < 50 | O=C(Nc1nc(CCCCCC(=O)N2CCCC2)cn1-c1ccccc1)c1cccc(-c2ccc3[nH]ncc3c2)c1 [Example 240, 3-(1H-indazol-5-yl)-N-(4-(6-oxo-6-(pyrrolidin-1-yl)hexyl)-1-phenyl-1H-imidazol-2-yl)benzamide] |
| < 50 | O=C(Nc1nc(CCCCN2CCOCC2)cn1-c1ccccc1)c1cccc(-c2cn[nH]c2)c1 [Example 114, N-(4-(4-morpholinobutyl)-1-phenyl-1H-imidazol-2-yl)-3-(1H-pyrazol-4-yl)benzamide] |
